In general, IC50 refers to the concentration that inhibits the measured activity by half. Lower therefore signals higher potency.

SMILES strings stand for the structures.

This assay can be described thus: Compound was tested for binding affinity to dopamine reuptake sites in the tissue homogenates prepared from […] striatum using [3H]CFT as radioligand.

Regarding `COC(=O)C1C(c2ccc(I)cc2)CC2CCC1N2C` [(3S,5R)-methyl 3-(4-iodophenyl)-8-methyl-8-aza-bicyclo[3.2.1]octane-2-carboxylate], the IC50 was 88 nM.

`COC(=O)[C@@H]1C2CC[C@H](C[C@@H]1c1ccc(I)cc1)N2C` came in with an IC50 of 1.6 nM.
